# Experimental data taken from patent US20190337971A1, “PANTETHEINE DERIVATIVES FOR THE TREATMENT OF NEUROLOGIC DISORDERS” (Retrophin, Inc., priority 2016, published 2019).
# Read-outs that look alike come from different tables or passages of the source.
# How the values were obtained:
# Type in all cases: in vitro ADME
# [1] = Stability in human whole blood; conditions: 37° C., up to 60 min
# Method: The stability of selected compounds in human whole blood was evaluated according to the following protocol. Compounds and positive control samples were dissolved in 100% DMSO at 3 mM (stock solution). To investigate the stability of the test compounds in whole blood, a 200 μM working solution (WS) in water has been prepared by adding 66.66 μl of each 3 mM stock solution to 933.34 μl of water (6.66% DMSO content). After pre-incubation of the whole blood at 37° C. for 5 min in an eppendorf, 10.5 μl of each working solution were spiked into 689.5 μl of heated blood. The obtained 3 μM solution in blood (0.1% DMSO content) was quickly stirred and 100 μl for each time point were transferred to an eppendorf. Each compound was tested in duplicate at five time points (10, 20, 30, 40 and 60 min). At each time point, the reaction was stopped by quenching the spiked blood (100 μl) with 400 μl of 100% acetonitrile containing 0.1% formic acid. Then samples were centrifuged at 15600 rpm for 15 min at +4° C. and 200 μl of supernatant were transferred to a 96-deepwell plate. Samples were evaporated under N2 and reconstituted in H2O/ACN 0.1% formic Acid (98/2 v/v) containing the appropriate internal standard. Analysis was performed without a calibration curve by using an Acquity-UPLC (Waters) coupled to a triple quadrupole mass spectrometer (SciexAPI4000). Time point 0 was obtained by adding 3 μL of each 200 μM working solution to 997 μL of the supernatant obtaining after centrifugation (15600 rpm for 15 min at +4° C.) of the blank matrix quenched with acetonitrile containing 0.1% formic acid.
# Stability was determined based on analysis of disappearance of the compounds as a function of incubation time. Quantification of test compounds was measured as a peak area relative to an internal standard. The elimination constant k and half-life (t1/2) were determined as described above in Example 7.
# [2] = Permeability in a porcine brain endothelial cell model of the blood-brain barrier; conditions: pig, luminal (apical) to basal, PBECs/As
# Excerpt: Compounds disclosed herein show the potential to reach mammalian brain by crossing the blood-brain barrier (BBB) from systemic circulation. […] The porcine brain endothelial cell permeability assay is an in vitro BBB model to be used for the prediction of central nervous system (CNS) drug permeability in vivo and for ranking or prioritization of compounds according to their permeability. This system can also be used for mechanistic studies and drug delivery strategies via receptor-mediated transport (transcytosis). The system is a two-dimensional co-culture, non-contact model of two types of primary cells: primary brain endothelial cells obtained from fresh porcine brains, and primary rat astrocytes, obtained from neonatal rats (PBECs/As). This ensures barrier formation and functional expression of key transporters.
# The endothelial cells were cultured on rat-tail collagen type I and human fibronectin coated Transwell polycarbonate inserts (surface area 0.7 cm^2; pore size 0.4 μm) and the inserts were placed in 24-well plates containing confluent rat astrocytes. This system allows for the formation of a differentiated BBB model suitable for compound permeability in 10 days.
# On the day of the experiment, culture medium was removed and cells were pre-incubated for 30 min with HBSS containing 20 mM Hepes pH 7.4 and 0.1% BSA. Donor volume (apical) was 400 μl and receiver volume (basal) 900 μl. Compounds were diluted in assay medium (at the desired concentration) and added to the luminal side (to mimic blood to brain passage). Transport was measured usually after 60 min by detecting the amount of compound from the basal (brain side). The integrity of the cell layers was assessed by measuring the transendothelial electrical resistance (TEER) and by monitoring FITC-dextran (40 KDa) permeation. Inserts with TEER values>500 Ω/cm^2 were selected for permeability studies. […] Fluorescence was measured using a fluorimetric detector. Radioactivity was measured by scintillation counting. […] After reconstitution, samples were analyzed by LC-MS/MS. Mass balance was determined considering the amount of compound recovered in the donor and receiver chamber at the end of the assay relative to the amount added to the donor chamber at time 0.
# Permeability was defined as the apparent permeability coefficient (Papp), which is a measure of the appearance rate of the compound in the receiver chamber, expressed in cm/s. Papp is calculated according the following equation: […]
# To correct for the contribution of filter and substrate, Papp was also determined for the cell-free system. Permeability of the endothelial cell layer was determined using the following equation: […]
# [3] = Stability of compounds in human hepatocytes; conditions: cryopreserved human hepatocytes in suspension, 37° C., 0-240 min
# Method: Stability in hepatocytes for select compounds disclosed in the application was evaluated in two species (mouse and human) according to the following procedure. Compounds and positive control samples were dissolved in 100% DMSO at 5 mM. Cryopreserved hepatocytes were thawed and resuspended in Hepatocyte Basal Medium (HBM-Lonza CC-3199) supplemented with CC-4182 (complete hepatocyte culture medium). Test compounds were diluted into cell suspension (1 million cells/ml) from the stock solutions to have a test compound concentration of 5 μM (0.1% DMSO). Incubation was performed in 24-well plates, at 37° C. in a DUBNOFF water bath, under low shaking. Each compound was tested at 6 time points, in duplicates (0, 15, 30, 60, 120, and 240 min). At each time point, an aliquot of 120 μl was taken and transferred to a 96-well deep plate. The reaction was stopped with the addition of one volume of 100% acetonitrile plus 0.1% formic acid and the appropriate internal standard. Samples then were centrifuged at 1100×g for 30 min at +4° C. and supernatants were transferred to a new 96-deepwell plate. Samples were evaporated under N2 and reconstituted in H2O/ACN 0.1% formic Acid (98:2). Analysis was performed without a calibration curve (Acquity UPLC-Waters; Sciex API4000). Time 0 was obtained adding acetonitrile before addition of the test compound. Stability was determined based on analysis of disappearance of the compounds as a function of incubation time. Quantification of test compounds was measured as a peak area relative to an internal standard. The elimination constant, k, is calculated by plotting mean disappearance values on a semi-logarithmic scale and fitting with a best fit linear regression. The half-life (t1/2) expressed in hours was derived using Equation 1:
# t1/2=ln 2/(−k). Equation 1: […]
# [4] = Diastereoisomer A (upfield shift in 31P NMR), read-out: t1/2 (h) Human Whole Blood Diastereoisomer A (converted)
# [5] = Diastereoisomer B, read-out: t1/2 (h) Human Whole Blood Diastereoisomer B (converted)
# [6] = pH 7.4, Diastereoisomer A (upfield shift in 31P NMR), read-out: Papp Diastereoisomer A
# [7] = pH 7.4, Diastereoisomer B, read-out: Papp Diastereoisomer B
# [8] = Diastereoisomer A (upfield shift in 31P NMR), read-out: t1/2 (h) Human Hepatocytes Diastereoisomer A (converted)
# [9] = Diastereoisomer B, read-out: t1/2 (h) Human Hepatocytes Diastereoisomer B (converted)
"half-life at 3 μM [1, 4]","half-life at 3 μM [1, 5]","Papp A→B at 60 min [2, 6]","Papp A→B at 60 min [2, 7]","half-life at 5 μM [3, 8]","half-life at 5 μM [3, 9]",SMILES
0.34 h,< 0.16 h,3.1 ×10⁻⁶ cm/s,3.6 ×10⁻⁶ cm/s,0.25 h,0.21 h,"CC(=O)SCCNC(=O)CCNC(=O)[C@@H]1OP(=O)(OCOC(=O)c2cc(C)nn2C)OCC1(C)C (stereo partly drawn) [R1007, (((4R)-4-((3-((2-(acetylthio)ethyl)amino)-3-oxopropyl)carbamoyl)-5,5-dimethyl-2-oxido-1,3,2-dioxaphosphinan-2-yl)oxy)methyl 1,3-dimethyl-1H-pyrazole-5-carboxylate]"
0.37 h,< 0.16 h,3.17 ×10⁻⁶ cm/s,3.18 ×10⁻⁶ cm/s,0.42 h,0.35 h,"CC(=O)SCCNC(=O)CCNC(=O)[C@@H]1OP(=O)(OCOC(=O)c2scnc2C)OCC1(C)C (stereo partly drawn) [R1006, (((4R)-4-((3-((2-(acetylthio)ethyl)amino)-3-oxopropyl)carbamoyl)-5,5-dimethyl-2-oxido-1,3,2-dioxaphosphinan-2-yl)oxy)methyl 4-methylthiazole-5-carboxylate]"
